Assay results: patent publication US20130035246A1, “Method and Apparatus for Determining a Mammal's Exposure to Chemical or Biological Agents” ([…], INC., priority 2011, published 2013)

Tested on: peripheral blood mononuclear cell (PBMC) cultures
Test: Cytokine expression in PBMC cultures challenged with mold cells or PHA (multiplex immunoassay)
Format: cell-based, human
Details: PBMC from healthy volunteers, 18 hours
From the text: PBMC were isolated from blood collected from patients and control subjects as previously described [Gillis B, Gavin I M, Arbieva Z, King S T, Jayaraman S, Prabhakar B S. Identification of human cell responses to benzene and benzene metabolites. Genomics 2007; 90: 324-333 and Gavin I M, Gillis B, Arbieva Z, Prabhakar B S. Identification of human cell responses to hexavalent chromium. Environ Mol Mutagen 2007; 48: 650-657.] and incorporated herein by reference. One milliliter of blood plasma was also collected from the blood samples and stored frozen at −80° C. […]
After overnight culture of the PMBC, one milliliter of supernatant was removed from each plate, centrifuged at 16,000 g at +4° C. for 10 minutes, and clear cell-free culture media were collected. Cytokine concentrations in culture supernatants, as well as in plasma, were measured by multiplex immunoassay based on Luminex xMAP™ bead array technology using a Bio-Plex 200 fluorescence bead reader (BioRad Laboratories, Hercules, Calif.). […]
Statistical analyses were performed with Microsoft Excel and Analyse-it software (Analyse-it Software Ltd., Leeds, UK). An increase of cytokine expression in immunologic challenges was evaluated using a Student's t-test. […] The statistical significance of the difference in responses to various immunologic challenges was evaluated by using a one-way ANOVA test with Tukey type I error correction. […]

## phytohemagglutinin [PHA]
  IL-2, IL-4 and IL-5 in culture supernatants: detected
